Series [1] in a line: log P. It is filed as physicochemical.
In series [2] the test system is high affinity Compound 1 (Aβ lowering) site on SWE293 cells. Description: Flow cytometry labelling of SWE293 cells with Compound 3. In kind it is cell-based. On the procedure: SWE293 cells were successfully labelled with 5 nM of Compound 3 for flow cytometry analysis (excitation 488 nm, emission 510 (+/−10) nm) to give a four fold increase in fluorescence intensity over background unlabeled cells, consistent with the binding site being in relatively low abundance. At 5 nM concentration this compound only labels the high affinity Compound 1 (Aβ lowering) site. In the presence of 1 μM 5-(S)-[N′-((S)-3,5-Difluorophenyl-α-hydroxyacetyl)-L-alaninyl]amino-7-methyl-5,7-dihydro-6H-dibenz[b,d]azepin-6-one (Example 29), (which is sufficient to completely displace all specifically bound Compound of Example 28 at >>5 nM)), the signal was reduced by 20% (p<0.001), after background subtraction. Compound 3 is obviously a very hydrophobic molecule (log P>3), and the non displaceable signal is almost certainly due to non-specific partitioning into cell membranes.
(In general: A flow cytometer gives signals particle by particle.)

Series [3] has as its system Aβ production in 293 cells. Description: Inhibition of Aβ production in 293 cells. In kind it is cell-based. The settings on record: Homo sapiens, HEK293, whole cell.
Series [4] concerns low affinity Compound 1 site, membranes obtained from 293 cells. Briefly: Competition with 3H-Compound 1 binding to membranes from 293 cells, low affinity site. Particulars: 293 cell membranes, n=2. On the procedure:
(§1) The compound of Example 28 (Compound 3) was also tested. The high affinity ^3H-N-[8-N′-((2-(R/S)-hydroxy-2-(3,5-difluorophenyl)-acetyl-L-alaninyl)-L-phenylglycine)-3,6-dioxaoctyl]-4,4-difluoro-5,7-dimethyl-4-bora-3α,4α-diaza-s-indacene-3-propionamide (Compound 3) binding site mediates the Aβ lowering activity of Compound 1, whereas the low affinity site is irrelevant to Aβ lowering. […] This wide separation in high and low affinity Ki's (7741.5; n=2) affords a wide window of concentrations of Compound 3 where binding of the compound is almost exclusively to the high affinity Compound 1 site.

For series [5], the target named is high affinity Compound 1 binding site (Aβ lowering) in 293 membranes (Homo sapiens, UniProt P49768). Briefly: Saturation binding of 3H-Compound 1 in 293 membranes, high affinity site. On the procedure:
(§2) The pharmacological profile of ^3H-5-(S)-(N′-((S)-(+)-2-Hydroxy-3-methylbutyryl)-L-alaninyl)amino-7-methyl-5,7-dihydro-6H-dibenz[b,d]azepin-6-one (Compound 1 from Example 30) has been studied in 293 membranes. There are two distinct binding components in the membrane preparations. Saturation binding analysis utilizing 0-50 pM and 0-150 nM ^3H-Compound 1 reveal two sites (KD1=52.7 pM [Bmax1=710 fmol/mg protein]; KD2=32.5 nM [Bmax2=34.4 pmol/mg protein]).
as §1

Series [6] deals with low affinity Compound 1 site in 293 membranes. Description: Saturation binding of 3H-Compound 1 in 293 membranes, low affinity site. Particulars: 0-150 nM 3H-Compound 1, 293 membranes, read-out: KD2. On the procedure:
as §2, §1

In general, logP refers to the decadic logarithm of the partition coefficient of the neutral form, usually between octanol and water. A low value points to a more hydrophilic compound. As usually defined, the IC50 is the midpoint of a concentration-inhibition curve. Higher therefore signals lower potency. A word on the Ki: it is a measure of affinity in units of concentration, obtained from inhibition or displacement. Read a low Ki as a stronger hold on the target. On to `Cc1cc(C)n2c1C=C1C=CC(CCC(=O)NCCOCCOCCNC(=O)C(NC(=O)C(C)NC(=O)C(O)c3cc(F)cc(F)c3)c3ccccc3)=[N+]1[B-]2(F)F` (racemic) [Compound 3, N-[8-N′-((2-(R/S)-hydroxy-2-(3,5-difluorophenyl)-acetyl-L-alaninyl)-L-phenylglycinyl)amino-3,6-dioxaoctyl]-4,4-difluoro-5,7-dimethyl-4-bora-3α,4α-diaza-s-indacene-3-propionamide], for which, in series [1], the logP is greater than 3. The “increase in fluorescence intensity over background unlabeled cells” value in series [2] (SWE293 cells labelled with 5 nM, flow cytometry, excitation 488 nm, emission 510 (+/−10) nm) is “four fold”. The same compound had an IC50 in series [3] of 0.585 nM. In series [4], this compound displayed a Ki of 574 nM.
In the case of `CC(C)[C@H](O)C(=O)N[C@@H](C)C(=O)NC1C(=O)N(C)c2ccccc2-c2ccccc21` (stereo partly drawn) [Compound 1, 5-(S)-(N′-((S)-(+)-2-Hydroxy-3-methylbutyryl)-L-alaninyl)amino-7-methyl-5,7-dihydro-6H-dibenz[b,d]azepin-6-one], in series [5], the Bmax1 is 710 fmol/mg protein. The Kd in series [6] stood at 32.5 nM.
For `C[C@H](NC(=O)[C@@H](O)c1cc(F)cc(F)c1)C(=O)N[C@@H]1C(=O)N(C)c2ccccc2-c2ccccc21` [Example 29, 5-(S)-[N′-((S)-3,5-Difluorophenyl-α-hydroxyacetyl)-L-alaninyl]amino-7-methyl-5,7-dihydro-6H-dibenz[b,d]azepin-6-one], the “reduction of Compound 3 fluorescence signal” value in series [2] (1 μM competitor, SWE293 cells labelled with 5 nM Compound 3, after background subtraction, p<0.001) is 20%.

The values above are taken from patent US6486350B1, “Biological reagents and methods for determining the mechanism in the generation of β-amyloid peptide” (Elan Pharmaceuticals Inc., priority 1998, dated 2002).
